Results taken from patent publication US20210292296A1, “1,2,4-Trioxane compounds and compositions comprising the same for use in the treatment of COVID-19” (priority 2020, published 2021).

Columns and labels:
[1] = Aqueous stability of artemisinin in presence of additives (1H NMR); assay type: physicochemical; conditions: 93° C. for 90 minutes
Description: Two solvents were tested, tap water and premade black coffee, and glucose (1 equivalent) was tested as a reductant. All mixtures were heated to 93° C. for 90 minutes in 10 mL glass vials open to the atmosphere. Halfway through heating, 1-2 mL of tap water was added to compensate for evaporation. Following heating, 2 mL ethyl acetate was added, and the biphasic solution was dried using a rotary evaporator with water bath at 40° C. The flask was further dried for three hours under high vacuum. All samples were dissolved in CDCl3 containing 0.5 equivalents of an internal standard (1,2,4,5-tetramethylbenzene) and ^1H NMR performed.

SARS-CoV-2 [2] = test: Pretreatment screening, SARS-CoV-2 plaque numbers on Vero E6 cells; assay type: cell-based
SARS-CoV-2 [3] = test: SARS-CoV-2 induced cytopathic effect (CPE) in Vero E6 cells, MTS method; assay type: cell-based; conditions: 72 h

## C[C@@H]1CC[C@H]2[C@@H](C)C(=O)O[C@@H]3O[C@@]4(C)CC[C@@H]1[C@]32OO4 [artemisinin]
[1]; premade black coffee + glucose (1 equivalent)
  loss of artemisinin: 19%
[1]; premade black coffee
  degradation of artemisinin: 17%
[1]; tap water + glucose (1 equivalent)
  loss of artemisinin: 32%
SARS-CoV-2 [2]; pretreatment 15 min, dilution 100
  # of Plaques: 78
SARS-CoV-2 [2]; pretreatment 15 min, dilution 1,000
  # of Plaques: 104
SARS-CoV-2 [2]; pretreatment 15 min, dilution 10,000
  # of Plaques: 109
SARS-CoV-2 [2]; pretreatment 15 min, sample 0.22 μg/mL
  plaques observed divided by average of negative control multiplied by 100: 95.63
SARS-CoV-2 [2]; pretreatment 15 min, sample 2.2 μg/mL
  plaques observed divided by average of negative control multiplied by 100: 84.06
SARS-CoV-2 [2]; pretreatment 15 min, sample 22 μg/mL
  plaques observed divided by average of negative control multiplied by 100: 80.21
SARS-CoV-2 [2]; pretreatment 15 min, sample 220 μg/mL
  plaques observed divided by average of negative control multiplied by 100: 60.15
SARS-CoV-2 [2]; pretreatment 30 min, dilution 100
  # of Plaques: 88
SARS-CoV-2 [2]; pretreatment 30 min, dilution 1,000
  # of Plaques: 100
SARS-CoV-2 [2]; pretreatment 30 min, dilution 10,000
  # of Plaques: 102
SARS-CoV-2 [2]; pretreatment 30 min, sample 0.22 μg/mL
  plaques observed divided by average of negative control multiplied by 100: 104.88
SARS-CoV-2 [2]; pretreatment 30 min, sample 2.2 μg/mL
  plaques observed divided by average of negative control multiplied by 100: 78.66
SARS-CoV-2 [2]; pretreatment 30 min, sample 22 μg/mL
  plaques observed divided by average of negative control multiplied by 100: 78.66
SARS-CoV-2 [2]; pretreatment 30 min, sample 220 μg/mL
  plaques observed divided by average of negative control multiplied by 100: 67.87
SARS-CoV-2 [2]; pretreatment 60 min, dilution 100
  # of Plaques: 96
SARS-CoV-2 [2]; pretreatment 60 min, dilution 1,000
  # of Plaques: 120
SARS-CoV-2 [2]; pretreatment 60 min, dilution 10,000
  # of Plaques: 100
SARS-CoV-2 [2]; pretreatment 60 min, sample 0.22 μg/mL
  plaques observed divided by average of negative control multiplied by 100: 95.63
SARS-CoV-2 [2]; pretreatment 60 min, sample 2.2 μg/mL
  plaques observed divided by average of negative control multiplied by 100: 77.12
SARS-CoV-2 [2]; pretreatment 60 min, sample 22 μg/mL
  plaques observed divided by average of negative control multiplied by 100: 92.54
SARS-CoV-2 [2]; pretreatment 60 min, sample 220 μg/mL
  plaques observed divided by average of negative control multiplied by 100: 74.04
SARS-CoV-2 [2]; pretreatment 120 min, dilution 100
  # of Plaques: 106
SARS-CoV-2 [2]; pretreatment 120 min, sample 0.22 μg/mL
  plaques observed divided by average of negative control multiplied by 100: 103.34
SARS-CoV-2 [2]; pretreatment 120 min, sample 2.2 μg/mL
  plaques observed divided by average of negative control multiplied by 100: 95.63
SARS-CoV-2 [2]; pretreatment 120 min, sample 22 μg/mL
  plaques observed divided by average of negative control multiplied by 100: 103.34
SARS-CoV-2 [2]; pretreatment 120 min, sample 220 μg/mL
  plaques observed divided by average of negative control multiplied by 100: 81.75

## C[C@H]1[C@H](OC(=O)CCC(=O)O)O[C@@H]2O[C@@]3(C)CC[C@H]4[C@H](C)CC[C@@H]1[C@@]24OO3 [artesunate]
SARS-CoV-2 [3]
  EC50 (inhibition of virus-induced CPE): sufficiently low
